One data set has as its target T1, Aβ42 peptide (Homo sapiens, UniProt P05067).
T1 construct: containing Aβ42 peptide (5 μM); purchased AnaSpec; host or cells: synthetic
The data set is described as follows: Thioflavin T assay of Aβ aggregation. The format is biochemical. The settings on record: Aβ42 5 μM, compound 5–20 μM, 37°C 48 h; read-out: Aβ aggregation inhibition EC50 (Thioflavin T). On the procedure: In brief, the tested compound (5–20 μM) was added to a buffer solution (150 mM NaCl, 20 mM Tris-HCl (pH 8.0)) containing Aβ42 peptide (5 μM) and incubated at 37°C for 48 h. Thioflavin T (10 μM) (Sigma-Aldrich) then was added, and the mixture was incubated for 5 min at room temperature. Subsequently, the fluorescence intensity was quantified at 420/485 nm of excitation/emission wavelengths using a FLx800 microplate reader (Bio-Tek, Winooski, VT, USA). EC50 was computed as described.

Another data set has as its target T2, ΔK280 tauRD protein (Homo sapiens, UniProt P10636, DEL597-597).
T2 construct: E. coli-derived ΔK280 tauRD protein; made in house; host or cells: E. coli
Kind of data set: Thioflavin T assay of ΔK280 tauRD aggregation. Format: biochemical. The settings on record: ΔK280 tauRD 20 μM, compound 1–10 μM, 37°C 48 h; read-out: ΔK280 tauRD aggregation inhibition EC50 (Thioflavin T). On the procedure:
The potential of Congo red and coumarin-chalcone derivatives in inhibiting tau misfolding was assessed using the E. coli-derived ΔK280 tauRD protein [21]. In brief, ΔK280 tauRD protein (20 μM) was incubated with the tested compound (1−10 μM) in buffer (150 mM NaCl, 20 mM Tris-HCl (pH 8.0)) at 37°C for 48 h to form aggregates. Thioflavin T (5 μM) was then added, and the mixture was incubated at room temperature for 25 min. The fluorescence intensity of the samples was measured, and the EC50 was computed as described.

For another data set, the system named is Aβ-GFP SH-SY5Y cells. Kind of data set: Real-time PCR of Aβ-GFP RNA. The format is cell-based, Human. As to conditions: 5 μM. On the procedure: To measure the Aβ-GFP/tauRD-DsRed RNA expression on day 8, total RNA was extracted from collected cells and reverse-transcribed to cDNA (SuperScript III reverse transcriptase; Invitrogen, Waltham, MA, USA). Real-time quantitative PCR was performed using 100 ng of cDNA and the gene-specific TaqMan fluorogenic probe PN4331348 (EGFP) or customized Assays-by-Design probe for DsRed and 4326321E (HPRT1) (StepOnePlus Real-time PCR system, Applied Biosystems, Foster City, CA, USA). The RNA expression level was calculated using the formula 2^ΔCt, ΔCT = CT (control) − CT (target), in which CT indicates the cycle threshold.
(In general: Real-time PCR tracks product formation cycle by cycle.)

Data set [1] is described as follows: Mouse pharmacokinetics study and brain/plasma ratio. Format: in vivo, Male Crl:CD-1 (ICR) mice. The settings on record: for half-life: read-out: t1/2 (elimination half-life) (converted); for AUC(0-inf): iv, 5 mg/kg. On the procedure:
Male Crl:CD-1 (ICR) mice (8 weeks old) weighing 25–30 g were housed in cages with ad libitum access to food and drinking water on a 12 : 12 h light-dark cycle. All animal experiments were performed in accordance with the guidelines approved by the Rosetta Pharmamate Institutional Animal Care and Use Committee (IACUC Approval No: AF20015). Mice were randomly divided into 7 subgroups (6 time points and 1 vehicle control; n = 3 per subgroup). LM-021 (in 5% DMSO and 19% hydroxypropyl-β-cyclodextrin) was administered intravenously (IV) at 5 mg/kg dose in volume of 10 ml/kg. Mice were euthanized in a CO2 chamber at 0.25, 0.5, 1, 2, 4, or 8 h postdose. Whole blood was collected via facial veins in heparin-coated polypropylene tubes, and plasma was obtained by centrifugation (1000 × g for 15 min at 4°C) within 60 min of collection. After cerebral vasculature perfusion through the left ventricle with normal saline for 5 min, the whole brain was quickly excised and weighed. Plasma and brain samples were rapidly frozen and stored at −70°C until analysis (see supplementary materials).
Pharmacokinetic (PK) parameters, including plasma concentration following IV dose (C0), elimination half-life (T1/2), mean residence time (MRT), and area under the concentration- (AUC-) time curve from time 0 extrapolated to infinity (AUC(0-∞)), were estimated using noncompartmental pharmacokinetic parameter analysis with Phoenix WinNonlin software (version 8.2, Pharsight Corporation, Mountain View, CA, USA). In addition, the ratio of brain/plasma was calculated from the area under the curve for brain and plasma concentrations.
Supplementary Description
Preparation and analysis of mouse plasma and brain homogenate samples. A solvent-based protein precipitation procedure was used for analyzing plasma and brain homogenate samples. A 20-μl aliquot of each plasma sample was mixed with 60 μl of acetonitrile. For brain samples, collected brains were homogenized in 3 volumes of methanol, and then 50 μl of brain homogenate was mixed with 50 μl of acetonitrile.
After vortexing and centrifugation (20,000 × g for 5 min), the extracted supernatants were collected. Liquid chromatography – tandem mass spectrometry (LC-MS/MS) analyses was performed using an Agilent 1200 (Agilent Technologies, Palo Alto, CA, USA) coupled to a QTrap 5500 triple-quadrupole mass spectrometer (AB SCIEX, Foster City, CA, USA). Chromatographic separation was performed on an Eclipse Plus C18 column (3.5 µm; 4.6 × 50 mm; Agilent Technologies) with the mobile phase performed at a constant flow rate of 1.0 ml/min using a binary solvent system: solvent A, 5 mM ammonium acetate; solvent B, acetonitrile. The transition (precursor ion to daughter ion) monitored was m/z 336.2 → 321.0 for LM-021. Multiple reaction monitoring (MRM) data were acquired, and the chromatograms were integrated using Analyst 1.6.3 software (Applied Biosystems). A weighted (1/x) linear regression was used to generate the calibration curves from standards and to calculate the sample […]
concentrations. […]

The nature of the next data set: physchem. Format: physicochemical. The settings on record: aqueous buffer. On the procedure:
The coumarin-chalcone derivatives (E)-4-hydroxy-3-(3-(p-tolyl)acryloyl)-2H-chromen-2-one (LM-016), (E)-3-(3-(4-(dimethylamino)phenyl)acryloyl)-4-hydroxy-2H-chromen-2-one (LM-021), and (E)-3-(3-(furan-2-yl)acryloyl)-4-hydroxy-2H-chromen-2-one (LM-022) were synthesized in our laboratory as previously described and examined by using NMR spectroscopy. The LM-016, LM-021, and LM-022 stayed soluble in cell culture medium at concentrations up to 100 μM.

Where [2] appears, read: Crl:CD-1 (ICR), mouse, plasma, ICR male mice, IV 5 mg/kg.

Where two headings read alike, the source gives them in different places.

What is called EC50 is the concentration at which the effect is half-maximal. What is called MRT is the average time that molecules of a dose stay in the body. As usually defined, the clearance is the volume of plasma or blood freed of the substance per unit of time. By Kp is commonly meant the ratio of the level in a tissue or fluid to that in plasma or blood. For orientation: solubility means the dissolved amount per volume that the medium holds. High values mean much dissolved substance, low ones little dissolved substance.

T2 sequence (P10636 with tags, fused parts or gaps DEL597-597): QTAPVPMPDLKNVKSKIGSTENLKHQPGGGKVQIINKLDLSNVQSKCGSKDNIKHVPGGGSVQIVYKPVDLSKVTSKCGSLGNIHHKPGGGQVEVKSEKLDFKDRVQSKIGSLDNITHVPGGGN
T1 sequence (P05067 672-713 limits assumed): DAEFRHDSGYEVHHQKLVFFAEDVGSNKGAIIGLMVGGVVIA

Take `CN(C)c1ccc(/C=C/C(=O)c2c(O)c3ccccc3oc2=O)cc1` [LM-021, (E)-3-(3-(4-(dimethylamino)phenyl)acryloyl)-4-hydroxy-2H-chromen-2-one]: the EC50 at Aβ42 peptide came out at 14 µM; on ΔK280 tauRD protein, 10 µM. Also, the “Aβ-GFP RNA levels” value in the data set on Aβ-GFP SH-SY5Y cells is reported as “did not significantly modify”. The half-life in data set [1] (Crl:CD-1 (ICR), mouse, brain, ICR male mice, IV 5 mg/kg) was 2.17 ± 0.67 h; in data set [1] (setting [2]) it was 2.54 ± 0.79 h. Moreover, the C0 in data set [1] (setting [2]) was 20400 ± 9480 ng/mL. The MRT in data set [1] (setting [2]) was determined as 3.54 ± 0.93 h. For the same molecule, the clearance in data set [1] (setting [2]) came to 1.85 ± 0.12 mL/min/kg. Also, the Vd in data set [1] (Crl:CD-1 (ICR), mouse, plasma, ICR male mice, IV 5 mg/kg, read-out: Vss) stood at 0.39 ± 0.08 L/kg. Also, the Brain/plasma ratio in data set [1] (calculated by the AUC(0-∞) ratios, ICR male mice, IV 5 mg/kg) was 0.053. The Kp in data set [1] (male, Crl:CD-1 (ICR), mouse, brain and plasma, mice, IV 5 mg/kg) was 0.053. Besides, the AUC(0-inf) was 2380 ± 34 ng·h/mL in data set [1] (male, Crl:CD-1 (ICR), mouse, brain, brain (tissue density assumed 1 g/ml), ICR male mice, IV 5 mg/kg, read-out: AUC(0-∞)); 2380 ± 30 ng·h/mL in data set [1] (male, Crl:CD-1 (ICR), mouse, brain, brain, mice, intravenous bolus 5 mg/kg, read-out: Systemic exposure (AUC0-∞)); 45300 ± 2830 ng·h/mL in data set [1] (male, Crl:CD-1 (ICR), mouse, plasma, plasma, ICR male mice, IV 5 mg/kg, read-out: AUC(0-∞)); 45300 ± 2830 ng·h/mL in data set [1] (male, Crl:CD-1 (ICR), mouse, plasma, plasma, mice, intravenous bolus 5 mg/kg, read-out: Systemic exposure (AUC0-∞)). Further, the “Plasma clearance as share of cardiac output blood flow of mice (400 ml/min/kg)” value in data set [1] (mice, IV 5 mg/kg) is given as “about 0.5%”. This molecule returned a solubility in “physchem” not below 100 µM.
